{
  "source": "patent US20170114060A1",
  "about": "(priority 2014, published 2017)",
  "key": {"CRAC/Orai1 channels": {"target": "CRAC/Orai1 channels (Homo sapiens, UniProt Q96D31)", "sequence (Q96D31 whole entry)": "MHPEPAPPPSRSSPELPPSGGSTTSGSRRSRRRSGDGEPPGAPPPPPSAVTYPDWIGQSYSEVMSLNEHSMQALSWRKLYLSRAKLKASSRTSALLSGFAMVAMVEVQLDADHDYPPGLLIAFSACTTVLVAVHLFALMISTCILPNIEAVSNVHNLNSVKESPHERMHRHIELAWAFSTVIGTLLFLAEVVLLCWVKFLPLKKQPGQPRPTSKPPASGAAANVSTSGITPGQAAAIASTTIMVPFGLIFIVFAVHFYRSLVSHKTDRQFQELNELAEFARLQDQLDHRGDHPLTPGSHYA", "assay_type": "cell-based"}, "Ebola VP40 (eVP40) VLPs": {"system": "Ebola VP40 (eVP40) VLPs", "assay_type": "cell-based"}, "[1]": {"system": "Marburg VP40 (mVP40) VLPs", "assay_type": "cell-based"}, "[2]": {"system": "Junin virus (Candid-1 strain)", "assay_type": "cell-based"}, "[3]": {"system": "vesicular stomatitis virus (VSV)", "assay_type": "cell-based"}, "VP40-APT/PY VLP budding": {"system": "VP40-APT/PY VLP budding", "assay_type": "cell-based"}, "Influenza Virus A": {"system": "Influenza Virus A", "assay_type": "cell-based"}, "HEK293T cells [4]": {"system": "HEK293T cells"}, "HEK293T cells [5]": {"system": "HEK293T cells", "remark": "listed apart in the source"}, "HIV-1": {"system": "HIV-1", "assay_type": "cell-based"}, "[6]": {"system": "Ebola VP40 induced intracellular calcium increase", "assay_type": "cell-based"}, "LASV": {"system": "LASV", "assay_type": "cell-based, Lassa fever virus"}, "JUNV": {"system": "JUNV", "assay_type": "cell-based, Junin virus"}, "MARV": {"system": "MARV", "assay_type": "cell-based, Marburg virus"}, "EBOV": {"system": "EBOV", "assay_type": "cell-based, Ebola virus"}, "[7]": {"system": "eVP40 GFP expressed in HEK cells", "assay_type": "cell-based"}, "retrovirus": {"system": "retrovirus", "details": "cited from earlier work"}},
  "note": "“Also recorded” adds a separate entry of the source.",
  "data": [
    {"smiles": "NCCOB(c1ccccc1)c1ccccc1", "note": "[2-APB, 2-aminoethoxydiphenylborate]", "values": [
      {"measurement": "concentration that fully inhibited CRAC channels", "setting": "CRAC/Orai1 channels", "value": 50, "unit": "µM"},
      {"measurement": "inhibition of store-operated Ca2+ entry via CRAC/Orai channels", "setting": "CRAC/Orai1 channels", "value": "block store operated Ca^2+ influx; also recorded: blocked; also recorded: blocks Ca^2+ entry following Tg stimulation without affecting its release from the ER; also recorded: inhibition of Ca^2+ entry via CRAC channels"},
      {"measurement": "effect on cellular eVP40 expression/accumulation", "setting": "Ebola VP40 (eVP40) VLPs", "value": "neither 2-APB nor Synta66 inhibited cellular accumulation"},
      {"measurement": "inhibition of eVP40 VLP formation", "setting": "Ebola VP40 (eVP40) VLPs", "value": "inhibited eVP40 and mVP40 VLP budding"},
      {"measurement": "effect on cellular mVP40 accumulation", "setting": "[1]", "value": "neither 2-APB nor Synta66 inhibited cellular accumulation"},
      {"measurement": "inhibition of mVP40 VLP budding", "setting": "[1]", "value": "inhibited eVP40 and mVP40 VLP budding"},
      {"measurement": "decrease in the number of foci formed by virions released from cells", "setting": "[2]", "value": 10, "unit": "fold"},
      {"measurement": "reduction of live Junin virus (Candid-1) foci / budding", "setting": "[2]", "value": "a similar dose-dependent decrease in JUNV budding"},
      {"measurement": "effect on cellular expression of VSV M protein", "setting": "[3]", "value": "only a slight effect on cellular M protein expression; also recorded: little to no effect on cellular expression of VSV M protein"},
      {"measurement": "inhibition of live VSV budding / titers", "setting": "[3]", "value": "inhibited live VSV viral particle budding; also recorded: dose-dependent inhibition of VSV budding"},
      {"measurement": "sensitivity of Alix Bro1-V rescue of VLP production", "setting": "VP40-APT/PY VLP budding", "value": "2-APB sensitive"},
      {"measurement": "viability of cells under conditions mimicking infection experiments", "setting": "VeroE6 cells", "value": "without effect on the viability of cells"}
    ]},
    {"smiles": "c1ccc(C(c2ccccc2)c2noc(C3CCNCC3)n2)cc1", "note": "[FC-2121]", "values": [
      {"measurement": "inhibition of store-operated Ca2+ entry via CRAC/Orai channels", "setting": "CRAC/Orai1 channels", "value": "partial dose-dependent inhibition of Tg-induced calcium entry; also recorded: can block calcium influx into cells via Orai; also recorded: reduce Orai-mediated calcium entry"},
      {"measurement": "inhibition of eVP40 VLP formation", "setting": "Ebola VP40 (eVP40) VLPs", "value": "a corresponding inhibition of VLP formation; also recorded: successful inhibition of Ebola VP40 VLP production"},
      {"measurement": "reduction of live Influenza Virus A budding", "setting": "Influenza Virus A", "value": "reduce live Influenza Virus A budding"},
      {"measurement": "cell viability / cytotoxicity (MTT)", "setting": "HEK293T cells [4]", "value": "without cell toxicity"},
      {"measurement": "cytotoxicity", "setting": "HEK293T cells [5]", "value": "not cytotoxic"},
      {"measurement": "cytotoxicity", "setting": "MDCK cells", "value": "not cytotoxic"}
    ]},
    {"smiles": "Cc1c(CC(C(=O)O)c2ccccc2)nn(-c2ccccc2)c1-c1ccccc1", "note": "(stereo not drawn) [FC-2122, 3-(4-methyl-1,5-diphenyl-1H-pyrazol-3-yl)-2-phenylpropanoic acid]", "values": [
      {"measurement": "inhibition of store-operated Ca2+ entry via CRAC/Orai channels", "setting": "CRAC/Orai1 channels", "value": "partial dose-dependent inhibition of Tg-induced calcium entry; also recorded: inhibits Orai-mediated calcium entry; also recorded: can block calcium influx into cells via Orai"},
      {"measurement": "cellular eVP40 expression", "setting": "Ebola VP40 (eVP40) VLPs", "value": "not different from mock treated cells"},
      {"measurement": "concentrations at which VP40 expression inhibited", "setting": "Ebola VP40 (eVP40) VLPs", "value": "above 10 μM"},
      {"measurement": "inhibition of eVP40 VLP formation", "setting": "Ebola VP40 (eVP40) VLPs", "value": "a corresponding inhibition of VLP formation; also recorded: decreased to a comparable extent as by 2-APB; also recorded: inhibits; also recorded: successful inhibition of Ebola VP40 VLP production"},
      {"measurement": "reduction of live Influenza Virus A budding", "setting": "Influenza Virus A", "value": "reduce live Influenza Virus A budding"},
      {"measurement": "inhibition of budding of live HIV-1", "setting": "HIV-1", "value": "did not inhibit budding of live HIV-1"},
      {"measurement": "cell viability / cytotoxicity (MTT)", "setting": "HEK293T cells [4]", "value": "without cell toxicity"},
      {"measurement": "cytotoxicity", "setting": "HEK293T cells [5]", "value": "not cytotoxic"},
      {"measurement": "cytotoxicity", "setting": "MDCK cells", "value": "not cytotoxic"}
    ]},
    {"smiles": "Cc1cc(CC(C(=O)O)c2ccc(Cl)cc2)nn1-c1ccc(Cl)cc1", "note": "(stereo not drawn) [FC-2399, 2-(4-Chloro-phenyl)-3-[1-(4-chloro-phenyl)-5-methyl-1H-pyrazol-3-yl]-propionic acid]", "values": [
      {"measurement": "inhibition of store-operated Ca2+ entry via CRAC/Orai channels", "setting": "CRAC/Orai1 channels", "value": "reduce Orai-mediated calcium entry"},
      {"measurement": "inhibition of live VSV budding / titers", "setting": "[3]", "value": "significantly reduced budding of live Vesicular Stomatitis Virus in vitro in a dose-dependent manner"},
      {"measurement": "reduction of live Influenza Virus A budding", "setting": "Influenza Virus A", "value": "reduce live Influenza Virus A budding"},
      {"measurement": "inhibition of budding of live HIV-1", "setting": "HIV-1", "value": "reduces budding of live HIV-1"}
    ]},
    {"smiles": "CC(=O)N[C@@H](CS)C(=O)O", "note": "[NAC, N-acetyl cysteine]", "values": [
      {"measurement": "block of Ebola VP40 induced intracellular calcium increase", "setting": "[6]", "value": "block the Ebola VP40 induced intracellular calcium increase"}
    ]},
    {"smiles": "Cc1cc(Cc2cc(C)cc(C(C)(C)C)c2O)c(O)c(Cc2cc(C)cc(C(C)(C)C)c2O)c1", "note": "[NSC 62914]", "values": [
      {"measurement": "block of Ebola VP40 induced intracellular calcium increase", "setting": "[6]", "value": "block the Ebola VP40 induced intracellular calcium increase"}
    ]},
    {"smiles": "CC1=C(c2cnc(NC(=O)c3c(F)cccc3F)cn2)CN(c2ncc(C)s2)CC1", "note": "[R02959, 2,6-difluoro-N-{5-[4-methyl-1-(5-methyl-thiazol-2-yl)-1,2,5,6-tetrahydro-pyridin-3-yl]-pyrazin-2-yl}-benzamide]", "values": [
      {"measurement": "inhibition of store-operated Ca2+ entry via CRAC/Orai channels", "setting": "CRAC/Orai1 channels", "value": "blocks Ca^2+ entry following Tg stimulation without affecting its release from the ER"},
      {"measurement": "potency as inhibitor of Orai1 relative to 2-APB or Synta66", "setting": "CRAC/Orai1 channels", "value": "~10", "unit": "fold"},
      {"measurement": "inhibition of Ca2+ entry via CRAC channels", "setting": "CRAC/Orai1 channels; 5 μM", "value": "inhibits Ca^2+ entry via CRAC channels"},
      {"measurement": "block of Ca2+ entry", "setting": "CRAC/Orai1 channels; concentrations <5 μM", "value": "50-100 fold"},
      {"measurement": "effect on cellular eVP40 expression/accumulation", "setting": "Ebola VP40 (eVP40) VLPs", "value": "without any effect on cellular VP40 expression"},
      {"measurement": "inhibition of eVP40 VLP formation", "setting": "Ebola VP40 (eVP40) VLPs", "value": "dose dependent inhibition of eVLP formation"},
      {"measurement": "block of eVP40 production", "setting": "Ebola VP40 (eVP40) VLPs; concentrations <5 μM", "value": "50-100 fold"}
    ]},
    {"smiles": "COc1ccc(OC)c(-c2ccc(NC(=O)c3ccncc3F)cc2)c1", "note": "[Synta66, N-(2′,5′-dimethoxy[1,1′-biphenyl]-4-yl)-3-fluoro-4-pyridinecarboxamide]", "values": [
      {"measurement": "inhibition of store-operated Ca2+ entry via CRAC/Orai channels", "setting": "CRAC/Orai1 channels", "value": "blocks Ca^2+ entry following Tg stimulation without affecting its release from the ER; also recorded: inhibition of Ca^2+ entry via CRAC channels"},
      {"measurement": "effect on cellular eVP40 expression/accumulation", "setting": "Ebola VP40 (eVP40) VLPs", "value": "neither 2-APB nor Synta66 inhibited cellular accumulation"},
      {"measurement": "effect on cellular mVP40 accumulation", "setting": "[1]", "value": "neither 2-APB nor Synta66 inhibited cellular accumulation"},
      {"measurement": "cellular expression of JUNV glycoprotein (GP)", "setting": "[2]", "value": "No effect"},
      {"measurement": "reduction of live Junin virus (Candid-1) foci / budding", "setting": "[2]", "value": "dose-dependent reduction in the number of Junin foci; also recorded: reduces the number of JUNV foci in a dose-dependent manner"},
      {"measurement": "effect on cellular expression of VSV M protein", "setting": "[3]", "value": "without affecting expression of VSV M"},
      {"measurement": "inhibition of live VSV budding / titers", "setting": "[3]", "value": "dose-dependent inhibition of VSV budding; also recorded: inhibited VSV titers"},
      {"measurement": "reduction in budding of live VSV", "setting": "[3]", "value": "dose-dependent reduction in budding of live Vesicular Stomatitis Virus"},
      {"measurement": "inhibition of live LASV budding and spread", "setting": "LASV", "value": "steep dose-dependent inhibition; also recorded: dose-dependent reduction"},
      {"measurement": "inhibition of live JUNV budding and spread", "setting": "JUNV", "value": "steep dose-dependent inhibition; also recorded: dose-dependent reduction"},
      {"measurement": "inhibition of live MARV budding and spread", "setting": "MARV", "value": "steep dose-dependent inhibition; also recorded: dose-dependent reduction"},
      {"measurement": "inhibition of live EBOV budding and spread", "setting": "EBOV", "value": "steep dose-dependent inhibition; also recorded: dose-dependent reduction"},
      {"measurement": "VP40-induced membrane protrusions / VLP structures at the plasma membrane", "setting": "[7]", "value": "not prevelant; also recorded: inhibits the formation of VP40-induced membrane protrusions; also recorded: inhibition of EBOV VP40 protrusions from the plasma membrane; also recorded: reduces Ebola VP40-mediated virus-like particle formation at the plasma membrane"},
      {"measurement": "VP40 expression and membrane localization", "setting": "[7]", "value": "no difference in membrane localization of eVP40; also recorded: no apparent effect on VP40 expression or membrane localization; also recorded: does not result in altered expression of Ebola VP40 (green) at the plasma membrane"}
    ]},
    {"smiles": "Nc1ccc(C(=O)Nc2cccc(-c3nc(N4CCOCC4)c4oc5ncccc5c4n3)c2)cn1", "note": "[YM201636]", "values": [
      {"measurement": "inhibition of eVP40 VLP formation", "setting": "Ebola VP40 (eVP40) VLPs", "value": "dose-dependent reduction of Ebola VP40 VLP production"},
      {"measurement": "retrovirus budding", "setting": "retrovirus", "value": "inhibited retrovirus budding"}
    ]},
    {"smiles": "C[C@H](CCC(=O)O)C[C@H](C)C[C@H](C)C(=O)/C=C(\\O)[C@H](C)C[C@H](C)C/C=C/[C@@H](C)[C@@H](O)[C@@H](C)[C@@H](O)C[C@@H]1CC[C@@](C)([C@H]2CC[C@@](C)([C@@H](C)O)O2)O1", "note": "[ionomycin]", "values": [
      {"measurement": "rescue of VP40-APT/PY VLP budding mediated by the Bro1-V fragment of Alix", "setting": "VP40-APT/PY VLP budding", "value": "did not enhance rescue"}
    ]}
  ]
}
